Experimental data published in patent US20210244773A1, “DENTAL PULP STEM CELLS AND USES THEREOF” (priority 2018, published 2021).
Several values for one entry are separate records, joined by “and”; a condition that tells them apart may be missing. Equal values may be shown once.

Columns and labels:
Format in all cases: cell-based, human
DPSC = DPSC neuronal differentiation with TNF-alpha, lipoxin A4 or resolvin D1, flow cytometry (Example 3); conditions: for TNF-alpha-induced decrease in β III-tubulin expression: FIG. 6, both 10 and 100 nM, p<0.05; for neuronal differentiation of DPSC without TNF-alpha: added alone at either dose (10 or 100 nM), data not shown
Experimental: DPSC were isolated from the teeth of 7 healthy donors extracted during routine dental care. Samples were selected from our tooth biorepository based on the following donor characteristics: absence of medical comorbidities, no active medication use (aside from vitamin supplements), and absence of periodontal disease or tooth decay. The extracted pulp were plated and then cultured in basal medium, DMEM/F12+15% FBS supplemented with 100 U/mL non-essential amino acids (Gibco Life Technologies), 100 U/mL penicillin and streptomycin, and glutamine (Gibco Life Technologies). Outgrowing fibroblast-like cells appeared after 3-4 days and at that point the pulp was replated. The outgrowing cells were passaged after reaching 80% confluence and passage 4 was used for all experiments. Cells were seeded in duplicate with 2×10^4 cells/well. Neuronal differentiation was induced by replacing DMEM/F12+15% FBS culture media with neuronal differentiation media (NeuroCult NS-A Differentiation Kit-Human, StemCell Technologies Inc., Tukwila, Wash., USA) 48 hours after seeding. Cells were cultured under neuronal induction conditions for up to 21 days with culture media changed twice a week.
Varying concentrations of TNF-alpha (1, 10, 25, and 100 ng/mL, PeproTech, Rocky Hill, N.J., USA), lipoxin A4 (10 and 100 nM, Cayman Chemical, Ann Arbor, Mich., […], Cayman Chemical, Ann Arbor, Mich., USA) were added to the culture of both differentiated and non-differentiated cells starting 48 hours after seeding. In some experiments cells were treated with both TNF-alpha and lipoxin A4 or resolvin D1.
Expression of stem cell and neuronal cell markers was determined by flow cytometry. […] Cells were incubated for 1 hour at room temperature with the following primary antibodies against stem cell markers: rabbit anti-CD44 (Abcam, 1:30) and rabbit anti-OCT4 (Abcam, 1:200) and neuronal markers: rabbit anti-nestin (Abcam, 1:100), rabbit anti-doublecortin (Abcam, 1:50), mouse anti-β III-tubulin (Abcam, 1:100), and rabbit anti-NeuN (Abcam, 1:100). Fluorescence was achieved by incubating with secondary antibodies (Life Tech, Carlsbad, Calif., goat anti-rabbit IgG or goat anti-mouse IgG, dilution 1:500) for 1 hour at room temperature in a dark room. Cells were then subjected to flow cytometry and the percentage of cells expressing each marker was calculated.
Each analysis was performed in duplicate using cells from all donors. Median and interquartile ranges were calculated for each condition. Mann-Whitney tests were used for all statistical analyses; p<0.05 was considered significant.

dental pulp stem cells = experiment: MTT metabolic activity assay of dental pulp stem cells
Experimental: The metabolic activity of cells was determined by 3-(4,5-dimethylthiazol-2-yl)-2,5-diphenyltetrazolium bromide (MTT) assay at various time points to assess TNF-α toxicity on dental pulp stem cells. Cells were incubated for 4 hours in 5 mg/mL thiazolyl blue tetrazolium bromide (Sigma Aldrich, St. Louis, Mo., USA), the precipitate was suspended with 2-propanol (Sigma Aldrich, St. Louis, Mo., USA), and absorbance was determined in triplicate.

[1] = test system: DPSC expression of IL-6, IL-8, IL-1β; experiment: Inflammatory cytokine gene expression in DPSC by real-time PCR; conditions: all doses (1, 10, 25, 100 ng/ml), 24 hours
Experimental: Induction of inflammatory cytokine gene expression was determined by real-time PCR to optimize TNF-α treatment conditions. Total RNA was extracted from cells using Trizol (Life Technologies). 10 μL total RNA was reverse transcribed to cDNA using iScript cDNA Synthesis Kit (Bio-Rad, Hercules, Calif., USA). 1 μL cDNA used as template for real-time PCR amplification reactions using the iQ SYBR Green Supermix (Bio-Rad) in combination with […] of each gene-specific primer, according to manufacturer's instructions. Glyceraldehyde 3-phosphate dehydrogenase (GAPDH) was used as endogenous control. PCR reactions were conducted in duplicate using the following conditions: initial denaturation for 3 min at 95° C. followed by 40 cycles of 15 sec denaturation at 95° C. and 60 sec annealing at 60° C. Relative quantification was used for statistical analyses. The following primers were used: […]

[2] = 25 ng/ml TNF-alpha, 21 days of differentiation, versus absence of TNF-alpha

Row | Compound | β III-tubulin expression (percent of cells) (DPSC; 25 ng/ml TNF-alpha + 10 nM lipoxin A4) [%] | increase in β III-tubulin expression versus TNF-alpha alone (DPSC; 25 ng/ml TNF-alpha + 10 nM lipoxin A4, p=0.02) [%] | β III-tubulin expression versus TNF-alpha alone (DPSC; 25 ng/ml TNF-alpha + lipoxin A4 100 nM, p=0.03) | TNF-alpha-induced decrease in β III-tubulin expression (DPSC) | neuronal differentiation of DPSC without TNF-alpha (DPSC) | increase in β III-tubulin expression versus TNF-alpha alone (DPSC; 25 ng/ml TNF-alpha + 100 nM resolvin D1, p=0.02) [%] | β III-tubulin expression (percent of cells) (DPSC; 25 ng/ml TNF-alpha + 100 ng/ml resolvin D1) [%] | β III-tubulin expression versus TNF-alpha alone (DPSC; 25 ng/ml TNF-alpha + resolvin D1 10 nM, p=0.09) | toxicity to DPSC (succinic dehydrogenase metabolic activity) (dental pulp stem cells; TNF-alpha treatment) | metabolic activity (MTT) (dental pulp stem cells; neural induction with 25 ng/ml or 100 ng/ml TNF-alpha, 10 days, versus absence of TNF-alpha) | DPSC expression of IL-6 ([1]; FIG. 4A) | DPSC expression of IL-8 ([1]; FIG. 4B) | DPSC expression of IL-1β ([1]; FIG. 4C) | cells expressing the early marker doublecortin (DPSC; 25 ng/ml TNF-alpha, 21 days of differentiation) | expression of early neuronal marker nestin (DPSC; [2]) | expression of stem cell marker CD44 (DPSC; [2]) | expression of stem cell marker OCT 3/4 (DPSC; [2]) | decrease in differentiated cells expressing β III-tubulin (DPSC; 25 ng/ml TNF-alpha, neuronal differentiation, decrease) | β-III tubulin expression (DPSC; FIG. 6, presence of TNF-alpha) | β III-tubulin expression (percent of cells) (DPSC; neural induction with 25 ng/ml TNF-alpha alone) [%]
1 | CCCCC[C@H](O)/C=C/C=C\C=C\C=C\[C@@H](O)[C@@H](O)CCCC(=O)O [lipoxin A4] | 59 | 84 | Results were similar | mitigated | no reduction or improvement |  |  |  |  |  |  |  |  |  |  |  |  |  |  | 
2 | CC/C=C\C[C@H](O)/C=C/C=C\C=C\C=C\[C@@H](O)[C@@H](O)C/C=C\CCC(=O)O [resolvin D1] |  |  |  | mitigated | no reduction or improvement | 78 | 57 | approached significance |  |  |  |  |  |  |  |  |  |  |  | 
3 | TNF-alpha |  |  |  |  |  |  |  |  | not toxic | significantly greater metabolic activity | significant increases | significant increases | significant increases | non-significant increase | no difference | no difference | no difference | 70% and 59% | significant decrease | 32
